Source: ChEMBL document CHEMBL4371015, “Synthesis and biological evaluation of bifendate derivatives bearing acrylamide moiety as novel antioxidant agents” (Eur J Med Chem, 2019)
pIC50: −log10 of the molar value. Activity calls are given as the source filed them. The calls are words filed in the database; no cut-off is given here.

Key:
HBZY-1 [1] = test: Cytotoxicity against rat HBZY-1 cells assessed as decrease in cell viability after 72 hrs by MTT assay; type: cell-based; conditions: HBZY-1, 72 h
HBZY-1 [2] = test: Cytoprotection against H2O2-induced cell death in rat HBZY-1 cells assessed as cell viability at 6 uM preincubated for 2 hrs followed by H2O2 addition and measured after 24 hrs by MTT assay (reference value: 62.1%); type: functional; conditions: read-out: Activity
HBZY-1 [3] = test: Cytoprotection against H2O2-induced cell death in rat HBZY-1 cells assessed as increase in cell viability at 6 uM preincubated for 2 hrs followed by H2O2 addition and measured after 24 hrs by MTT assay; type: functional, cell-based
HBZY-1 [4] = test: Cytoprotection against H2O2-induced cell death in rat HBZY-1 cells assessed as increase in cell viability preincubated for 2 hrs followed by H2O2 addition and measured after 24 hrs by MTT assay; type: functional, cell-based
HBZY-1 [5] = test: Cytotoxicity against rat HBZY-1 cells assessed as decrease in cell viability up to 200 uM after 72 hrs by MTT assay; type: cell-based; conditions: hbzy-1, 72 h
HBZY-1 [6] = test: Antioxidant activity in rat HBZY-1 cells assessed as inhibition of H2O2-induced ROS accumulation […] for 12 hrs followed by H2O2 addition and measured after 3 hrs by DCFHA-DA/FITC staining-based FACS analysis; type: functional, cell-based
[7] = target: T1, Nuclear factor erythroid 2-related factor 2 (Homo sapiens) (UniProt Q16236); test: Activation of Nrf2 (unknown origin) expressed in HEK293 cells after 16 hrs by luciferase reporter gene assay; type: cell-based
T1 sequence (whole entry): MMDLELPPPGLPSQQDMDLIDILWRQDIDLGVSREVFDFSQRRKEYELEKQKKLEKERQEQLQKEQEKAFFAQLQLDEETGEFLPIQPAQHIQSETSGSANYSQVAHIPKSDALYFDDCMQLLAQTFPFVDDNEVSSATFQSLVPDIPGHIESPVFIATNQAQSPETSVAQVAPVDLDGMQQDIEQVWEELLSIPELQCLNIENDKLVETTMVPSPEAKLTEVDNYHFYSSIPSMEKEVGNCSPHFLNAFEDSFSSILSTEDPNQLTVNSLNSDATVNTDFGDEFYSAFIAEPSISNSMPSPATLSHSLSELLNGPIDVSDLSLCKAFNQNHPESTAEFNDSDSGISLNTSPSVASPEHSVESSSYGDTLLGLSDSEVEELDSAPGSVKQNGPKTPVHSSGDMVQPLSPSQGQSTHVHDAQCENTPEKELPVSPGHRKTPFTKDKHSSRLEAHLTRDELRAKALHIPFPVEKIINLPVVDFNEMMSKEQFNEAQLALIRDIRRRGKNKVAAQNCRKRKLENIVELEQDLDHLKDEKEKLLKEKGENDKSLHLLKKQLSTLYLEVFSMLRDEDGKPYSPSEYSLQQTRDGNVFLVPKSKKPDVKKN

HBZY-1 [8] = test: Cytoprotection against H2O2-induced cell death in rat HBZY-1 cells assessed as increase in cell viability at 6 uM preincubated for 2 hrs with 3 nM ZNPP prior to compound addition followed by 2 hrs incubation before H2O2 addition and measured after 24 hrs by MTT assay; type: functional, cell-based
HBZY-1 [9] = test: Cytoprotection against H2O2-induced cell death in rat HBZY-1 cells assessed as increase in cell viability at 6 uM preincubated for 2 hrs with 10 nM BSO prior to compound addition followed by 2 hrs incubation before H2O2 addition and measured after 24 hrs by MTT assay; type: functional, cell-based
[10] = target: T2, Keap1/Nrf2 (Homo sapiens) (UniProt Q16236+Q14145); test: Induction of Keap1/Nrf2 (unknown origin) interaction assessed as reduction in Nfr2 level in presence of DTT by Western blot analysis; type: protein assay
T2 sequence (Q14145 whole entry, looked up, one chain of several): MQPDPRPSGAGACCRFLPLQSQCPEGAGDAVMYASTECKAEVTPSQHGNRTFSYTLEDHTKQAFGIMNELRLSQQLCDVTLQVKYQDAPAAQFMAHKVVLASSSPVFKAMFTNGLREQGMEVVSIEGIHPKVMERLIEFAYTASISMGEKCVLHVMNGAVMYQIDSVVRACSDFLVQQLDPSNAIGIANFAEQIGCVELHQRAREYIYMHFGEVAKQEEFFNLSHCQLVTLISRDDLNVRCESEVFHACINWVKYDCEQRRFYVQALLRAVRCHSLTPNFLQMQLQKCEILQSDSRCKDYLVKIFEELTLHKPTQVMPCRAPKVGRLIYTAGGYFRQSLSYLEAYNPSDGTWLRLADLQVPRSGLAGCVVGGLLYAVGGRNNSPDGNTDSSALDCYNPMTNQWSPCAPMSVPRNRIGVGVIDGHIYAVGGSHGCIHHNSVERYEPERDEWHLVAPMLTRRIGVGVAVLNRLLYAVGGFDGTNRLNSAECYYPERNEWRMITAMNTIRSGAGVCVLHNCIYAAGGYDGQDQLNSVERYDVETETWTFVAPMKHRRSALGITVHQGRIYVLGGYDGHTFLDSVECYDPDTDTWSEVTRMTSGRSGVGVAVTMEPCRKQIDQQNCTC

HBZY-1 [11] = test: Cytoprotection against H2O2-induced cell death in rat HBZY-1 cells assessed as increase in cell viability at 6 uM preincubated for 2 hrs with 6 nM ZNPP prior to compound addition followed by 2 hrs incubation before H2O2 addition and measured after 24 hrs by MTT assay; type: functional, cell-based
HBZY-1 [12] = test: Cytoprotection against H2O2-induced cell death in rat HBZY-1 cells assessed as increase in cell viability at 6 uM preincubated for 2 hrs with 200 nM TRG prior to compound addition followed by 2 hrs incubation before H2O2 addition and measured after 24 hrs by MTT assay; type: functional, cell-based
HBZY-1 [13] = test: Cytoprotection against H2O2-induced cell death in rat HBZY-1 cells assessed as increase in cell viability at 6 uM preincubated for 2 hrs with 20 nM BSO prior to compound addition followed by 2 hrs incubation before H2O2 addition and measured after 24 hrs by MTT assay; type: functional, cell-based
[14] = target: T2, Keap1/Nrf2 (Homo sapiens); test: Induction of Keap1/Nrf2 (unknown origin) interaction assessed as increase in Nfr2 level in presence of DTT by Western blot analysis; type: protein assay
[15] = target: T2, Keap1/Nrf2 (Homo sapiens); test: Induction of Keap1/Nrf2 (unknown origin) interaction assessed as reduction in Nfr2 level in absence of DTT by Western blot analysis; type: protein assay
HBZY-1 [16] = test: Cytoprotection against H2O2-induced cell death in rat HBZY-1 cells assessed as increase in cell viability at 6 uM pre-incubated for 2 hrs with 100 nM TRG prior to compound addition followed by 2 hrs incubation before H2O2 addition and measured after 24 hrs by MTT assay; type: functional, cell-based
[17] = target: T2, Keap1/Nrf2 (Homo sapiens); test: Induction of Keap1/Nrf2 (unknown origin) interaction assessed as increase in Nfr2 level in absence of DTT by Western blot analysis; type: protein assay
HBZY-1 [18] = test: Cytoprotection against H2O2-induced cell death in rat HBZY-1 cells assessed as cell viability at 100 uM preincubated for 2 hrs followed by H2O2 addition and measured after 24 hrs by MTT assay (reference value: 62.1%); type: functional; conditions: read-out: Activity
[19] = target: T3, Nuclear factor erythroid 2-related factor 2 (Rattus norvegicus) (UniProt O54968); test: Activation of Nrf2 in rat HBZY-1 cells assessed as increase in HO-1 mRNA expression at 6 uM after 24 hrs by RT-PCR analysis; type: cell-based
T3 sequence (whole entry): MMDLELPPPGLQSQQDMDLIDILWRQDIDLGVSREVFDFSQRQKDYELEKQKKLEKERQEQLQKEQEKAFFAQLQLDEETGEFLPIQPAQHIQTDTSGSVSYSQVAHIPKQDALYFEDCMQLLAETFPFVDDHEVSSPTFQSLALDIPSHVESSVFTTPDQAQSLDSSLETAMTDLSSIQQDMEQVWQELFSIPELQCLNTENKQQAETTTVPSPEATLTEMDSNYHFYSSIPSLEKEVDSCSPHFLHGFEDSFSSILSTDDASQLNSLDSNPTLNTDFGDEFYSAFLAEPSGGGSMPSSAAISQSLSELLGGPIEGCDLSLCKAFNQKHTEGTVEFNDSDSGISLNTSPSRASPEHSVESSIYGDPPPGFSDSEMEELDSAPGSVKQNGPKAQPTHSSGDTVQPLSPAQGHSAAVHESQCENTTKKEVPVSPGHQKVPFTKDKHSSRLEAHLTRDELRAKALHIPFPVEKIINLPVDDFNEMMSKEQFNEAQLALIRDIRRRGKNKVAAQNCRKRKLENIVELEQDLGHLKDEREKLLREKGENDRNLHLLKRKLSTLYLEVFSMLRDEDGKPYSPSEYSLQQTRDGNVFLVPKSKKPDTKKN

[20] = target: T3, Nuclear factor erythroid 2-related factor 2 (Rattus norvegicus); test: Activation of Nrf2 in rat HBZY-1 cells assessed as increase in GCLM mRNA expression at 6 uM after 24 hrs by RT-PCR analysis; type: cell-based
[21] = target: T3, Nuclear factor erythroid 2-related factor 2 (Rattus norvegicus); test: Activation of Nrf2 in rat HBZY-1 cells assessed as increase in NQO-1 level at 6 uM by Western blot analysis; type: cell-based
[22] = target: T3, Nuclear factor erythroid 2-related factor 2 (Rattus norvegicus); test: Activation of Nrf2 in rat HBZY-1 cells assessed as increase in GCLC mRNA expression at 6 uM after 24 hrs by RT-PCR analysis; type: cell-based
[23] = target: T3, Nuclear factor erythroid 2-related factor 2 (Rattus norvegicus); test: Activation of Nrf2 in rat HBZY-1 cells assessed as increase in HO-1 level at 6 uM by Western blot analysis; type: cell-based
[24] = target: T3, Nuclear factor erythroid 2-related factor 2 (Rattus norvegicus); test: Activation of Nrf2 in rat HBZY-1 cells assessed as increase in GCLM level at 6 uM by Western blot analysis; type: cell-based
[25] = target: T3, Nuclear factor erythroid 2-related factor 2 (Rattus norvegicus); test: Activation of Nrf2 in rat HBZY-1 cells assessed as increase in NQO-1 mRNA expression at 6 uM after 24 hrs by RT-PCR analysis; type: cell-based
[26] = target: T3, Nuclear factor erythroid 2-related factor 2 (Rattus norvegicus); test: Activation of Nrf2 in rat HBZY-1 cells assessed as increase in GCLC level at 6 uM by Western blot analysis; type: cell-based

## COC(=O)c1cc(OC)c2c(c1-c1c(/C=C/C(=O)Nc3cc(OC)c(OC)c(OC)c3)cc(OC)c3c1OCO3)OCO2
HBZY-1 [1]
  pIC50: < 3.70

## COC(=O)c1cc(OC)c2c(c1-c1c(/C=C/C(=O)Nc3ccccc3OC)cc(OC)c3c1OCO3)OCO2
HBZY-1 [2]
  viability at 6 µM: 90.6%
HBZY-1 [1]
  pIC50: < 3.70

## COC(=O)c1cc(OC)c2c(c1-c1c(/C=C(\C#N)C(=O)Nc3ccc(OC)c(OC)c3)cc(OC)c3c1OCO3)OCO2
HBZY-1 [1]
  pIC50: < 3.70

## COc1ccccc1NC(=O)/C(C#N)=C/c1ccc(OC)c(OC)c1
HBZY-1 [3]
  Activity: inactive
HBZY-1 [1]
  pIC50: < 3.70

## COC(=O)c1cc(OC)c2c(c1-c1c(/C=C(\C#N)C(=O)NCc3ccc(OC)cc3)cc(OC)c3c1OCO3)OCO2
HBZY-1 [1]
  pIC50: < 3.70

## COC(=O)c1cc(OC)c2c(c1-c1c(/C=C/C(=O)Nc3ccc(OC)c(OC)c3)cc(OC)c3c1OCO3)OCO2
HBZY-1 [1]
  pIC50: < 3.70

## COC(=O)c1cc(OC)c2c(c1-c1c(/C=C(\C#N)C(=O)Nc3ccccc3OC)cc(OC)c3c1OCO3)OCO2
HBZY-1 [2]
  viability at 6 µM: 99.2%
HBZY-1 [1]
  pIC50: < 3.70
HBZY-1 [4]
  Activity: Dose-dependent effect
HBZY-1 [5]
  Activity: Toxic

## COC(=O)c1cc(OC)c2c(c1-c1c(/C=C/C(=O)Nc3ccc(OC)cc3)cc(OC)c3c1OCO3)OCO2
HBZY-1 [1]
  pIC50: < 3.70

## CCCCNC(=O)/C=C/c1cc(OC)c2c(c1-c1c(C(=O)OC)cc(OC)c3c1OCO3)OCO2
HBZY-1 [1]
  pIC50: < 3.70

## COc1ccccc1NC(=O)/C(C#N)=C/c1cc(OC)c(OC)c(OC)c1
HBZY-1 [3]
  Activity: inactive
HBZY-1 [1]
  pIC50: < 3.70

## COc1ccc(/C=C(\C#N)C(=O)Nc2ccccc2OC)cc1
HBZY-1 [3]
  Activity: inactive
HBZY-1 [1]
  pIC50: < 3.70

## COC(=O)c1cc(OC)c2c(c1-c1c(/C=C(\C#N)C(=O)NCCc3ccc(OC)c(OC)c3)cc(OC)c3c1OCO3)OCO2
HBZY-1 [1]
  pIC50: < 3.70

## COC(=O)c1cc(OC)c2c(c1-c1c(/C=C/C(=O)NCCc3ccc(OC)c(OC)c3)cc(OC)c3c1OCO3)OCO2
HBZY-1 [1]
  pIC50: < 3.70

## COC(=O)c1cc(OC)c2c(c1-c1c(/C=C(\C#N)C(=O)Nc3ccc(OC)cc3)cc(OC)c3c1OCO3)OCO2
HBZY-1 [2]
  viability at 6 µM: 97.2%
HBZY-1 [6]
  inhibition: Dose-dependent effect
[7]
  Activity: Dose-dependent effect
HBZY-1 [8]
  Activity: inactive
HBZY-1 [9]
  Activity: inactive
HBZY-1 [1]
  pIC50: < 3.70
[10]
  inhibition: inactive
HBZY-1 [11]
  Activity: inactive
HBZY-1 [12]
  Activity: inactive
HBZY-1 [4]
  Activity: Dose-dependent effect
HBZY-1 [13]
  Activity: inactive
[14]
  inhibition: inactive
[15]
  Activity: Active
HBZY-1 [5]
  Activity: Non-Toxic
HBZY-1 [16]
  Activity: inactive
[17]
  Activity: Active

## CCCCNC(=O)/C(C#N)=C/c1cc(OC)c2c(c1-c1c(C(=O)OC)cc(OC)c3c1OCO3)OCO2
HBZY-1 [2]
  viability at 6 µM: 95.3%
HBZY-1 [1]
  pIC50: < 3.70

## COC(=O)c1cc(OC)c2c(c1-c1c(C(=O)OC)cc(OC)c3c1OCO3)OCO2 [BIFENDATE]
HBZY-1 [2]
  viability at 6 µM: 66.1%
HBZY-1 [18]
  viability at 100 µM: 89.8%

## COC(=O)c1cc(OC)c2c(c1-c1c(/C=C/C(=O)NCc3ccc(OC)cc3)cc(OC)c3c1OCO3)OCO2
HBZY-1 [1]
  pIC50: < 3.70

## COC(=O)c1cc(OC)c2c(c1-c1c(/C=C(\C#N)C(=O)Nc3cc(OC)c(OC)c(OC)c3)cc(OC)c3c1OCO3)OCO2
HBZY-1 [1]
  pIC50: < 3.70

## Oc1ccc(/C=C/c2cc(O)cc(O)c2)cc1
[19]
  Activity: Active
[20]
  Activity: Active
[21]
  Activity: Active
[22]
  Activity: Active
[23]
  Activity: Active
[24]
  Activity: Active
[25]
  Activity: Active
[26]
  Activity: Active
